The target of one assay is CSF1R (FMS) (Homo sapiens, UniProt P07333). The experiment in a line: Z'-LYTE SelectScreen biochemical kinase assay CSF1R (FMS). The procedure, abridged:
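Z′-LYTE FRET-peptide assay: 0.2-40 ng CSF1R (FMS) with 2 μM Tyr 01 peptide in 50 mM HEPES pH 7.5, 10 mM MgCl2, ATP at apparent Km, 1% DMSO, 60 min at room temperature. Protease development 60 min; coumarin/fluorescein emission ratio gives phosphorylation; 10-point 3-fold titrations fitted sigmoidally.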

Another assay has as its target CDK5/p35 (Homo sapiens, UniProt Q00535). The experiment in a line: Z'-LYTE SelectScreen biochemical kinase assay CDK5/p35.
For another assay, the target named is PTK2 (FAK) (Homo sapiens, UniProt Q05397). The experiment in a line: Z'-LYTE SelectScreen biochemical kinase assay PTK2 (FAK). The procedure, abridged:
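Z′-LYTE FRET assay: 12.5-100 ng PTK2 (FAK) with 2 μM Tyr 07 peptide, ATP at apparent Km, in 50 mM HEPES pH 7.5, 10 mM MgCl2, 1 mM EGTA, 0.01% BRIJ-35, 1% DMSO, 60 min at room temperature. Protease development 60 min; coumarin/fluorescein emission ratio read; 10-point 3-fold titrations fit to sigmoidal dose-response.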

A further assay addresses KDR (VEGFR2) (Homo sapiens, UniProt P35968). The experiment in a line: Z'-LYTE SelectScreen biochemical kinase assay KDR (VEGFR2).
The mark [1] stands for this setting: 10 μmolar compound concentration, ATP at Km app, read-out: CSF1R (FMS) inhibition.
Setting [2] is: read-out: % Inhibition mean CSF1R (FMS).
Where [3] appears, read: 10 μmolar compound concentration, ATP at Km app, read-out: CDK5/p35 inhibition.
Setting [4] is: read-out: % Inhibition mean CDK5/p35.
[5] abbreviates: 10 μmolar compound concentration, ATP at Km app, read-out: PTK2 (FAK) inhibition.
The mark [6] stands for this setting: read-out: % Inhibition mean PTK2 (FAK).
The mark [7] stands for this setting: 10 μmolar compound concentration, ATP at Km app, read-out: KDR (VEGFR2) inhibition.
The mark [8] stands for this setting: read-out: % Inhibition mean KDR (VEGFR2).

Each structure is given as a SMILES string. Like-named read-outs stand apart in the source and are kept apart here. Some results are limits rather than exact numbers.

The values below come from patent US11339161B2, “Triazolo pyridines as modulators of gamma-secretase” (Boehringer Ingelheim International GmbH, priority 2017, dated 2022).

Chain of PTK2 (FAK) (Q05397 whole entry): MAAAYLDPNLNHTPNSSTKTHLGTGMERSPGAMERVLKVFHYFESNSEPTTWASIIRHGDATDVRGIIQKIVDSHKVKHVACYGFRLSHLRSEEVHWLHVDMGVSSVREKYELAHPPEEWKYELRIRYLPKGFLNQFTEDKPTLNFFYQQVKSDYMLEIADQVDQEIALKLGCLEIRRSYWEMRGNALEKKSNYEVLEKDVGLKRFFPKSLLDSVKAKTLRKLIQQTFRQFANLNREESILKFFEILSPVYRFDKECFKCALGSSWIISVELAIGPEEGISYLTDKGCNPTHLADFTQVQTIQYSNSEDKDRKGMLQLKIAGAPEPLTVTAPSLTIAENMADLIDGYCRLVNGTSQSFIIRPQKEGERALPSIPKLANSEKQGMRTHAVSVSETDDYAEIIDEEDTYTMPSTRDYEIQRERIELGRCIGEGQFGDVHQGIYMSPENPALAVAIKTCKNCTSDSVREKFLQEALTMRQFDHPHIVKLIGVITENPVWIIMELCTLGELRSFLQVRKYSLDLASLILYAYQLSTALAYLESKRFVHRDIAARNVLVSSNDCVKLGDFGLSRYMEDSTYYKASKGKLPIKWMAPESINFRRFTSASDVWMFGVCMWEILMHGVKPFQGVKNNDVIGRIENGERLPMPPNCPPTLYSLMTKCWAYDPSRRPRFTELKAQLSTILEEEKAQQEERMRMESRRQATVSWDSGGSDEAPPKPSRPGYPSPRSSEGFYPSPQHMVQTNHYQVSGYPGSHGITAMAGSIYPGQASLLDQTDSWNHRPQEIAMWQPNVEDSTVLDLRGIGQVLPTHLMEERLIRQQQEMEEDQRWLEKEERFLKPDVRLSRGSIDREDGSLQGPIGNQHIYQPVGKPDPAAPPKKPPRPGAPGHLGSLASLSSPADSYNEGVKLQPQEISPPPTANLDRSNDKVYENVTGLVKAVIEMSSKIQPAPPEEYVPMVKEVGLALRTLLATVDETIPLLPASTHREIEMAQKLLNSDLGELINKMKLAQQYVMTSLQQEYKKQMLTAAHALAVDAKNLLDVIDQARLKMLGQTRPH
Chain of CDK5/p35 (Q00535 whole entry): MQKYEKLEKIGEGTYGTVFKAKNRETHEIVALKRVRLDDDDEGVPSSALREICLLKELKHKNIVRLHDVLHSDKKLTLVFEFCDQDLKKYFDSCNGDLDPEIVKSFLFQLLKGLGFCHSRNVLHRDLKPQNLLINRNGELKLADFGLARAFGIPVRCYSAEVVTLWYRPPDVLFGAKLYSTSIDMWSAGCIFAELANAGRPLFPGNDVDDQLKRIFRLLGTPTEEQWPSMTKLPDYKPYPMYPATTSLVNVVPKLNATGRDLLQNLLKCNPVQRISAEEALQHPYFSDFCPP
Chain of CDK5/p35 (Q15078 whole entry partner): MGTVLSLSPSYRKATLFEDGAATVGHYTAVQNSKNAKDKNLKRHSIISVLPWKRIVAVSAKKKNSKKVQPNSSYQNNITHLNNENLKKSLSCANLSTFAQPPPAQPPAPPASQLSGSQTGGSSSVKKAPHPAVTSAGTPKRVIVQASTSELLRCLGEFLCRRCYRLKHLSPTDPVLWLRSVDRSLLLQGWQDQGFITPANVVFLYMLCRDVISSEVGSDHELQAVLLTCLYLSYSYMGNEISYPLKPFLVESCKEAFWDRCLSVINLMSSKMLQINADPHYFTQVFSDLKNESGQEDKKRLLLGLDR
Chain of KDR (VEGFR2) (P35968 20-1356): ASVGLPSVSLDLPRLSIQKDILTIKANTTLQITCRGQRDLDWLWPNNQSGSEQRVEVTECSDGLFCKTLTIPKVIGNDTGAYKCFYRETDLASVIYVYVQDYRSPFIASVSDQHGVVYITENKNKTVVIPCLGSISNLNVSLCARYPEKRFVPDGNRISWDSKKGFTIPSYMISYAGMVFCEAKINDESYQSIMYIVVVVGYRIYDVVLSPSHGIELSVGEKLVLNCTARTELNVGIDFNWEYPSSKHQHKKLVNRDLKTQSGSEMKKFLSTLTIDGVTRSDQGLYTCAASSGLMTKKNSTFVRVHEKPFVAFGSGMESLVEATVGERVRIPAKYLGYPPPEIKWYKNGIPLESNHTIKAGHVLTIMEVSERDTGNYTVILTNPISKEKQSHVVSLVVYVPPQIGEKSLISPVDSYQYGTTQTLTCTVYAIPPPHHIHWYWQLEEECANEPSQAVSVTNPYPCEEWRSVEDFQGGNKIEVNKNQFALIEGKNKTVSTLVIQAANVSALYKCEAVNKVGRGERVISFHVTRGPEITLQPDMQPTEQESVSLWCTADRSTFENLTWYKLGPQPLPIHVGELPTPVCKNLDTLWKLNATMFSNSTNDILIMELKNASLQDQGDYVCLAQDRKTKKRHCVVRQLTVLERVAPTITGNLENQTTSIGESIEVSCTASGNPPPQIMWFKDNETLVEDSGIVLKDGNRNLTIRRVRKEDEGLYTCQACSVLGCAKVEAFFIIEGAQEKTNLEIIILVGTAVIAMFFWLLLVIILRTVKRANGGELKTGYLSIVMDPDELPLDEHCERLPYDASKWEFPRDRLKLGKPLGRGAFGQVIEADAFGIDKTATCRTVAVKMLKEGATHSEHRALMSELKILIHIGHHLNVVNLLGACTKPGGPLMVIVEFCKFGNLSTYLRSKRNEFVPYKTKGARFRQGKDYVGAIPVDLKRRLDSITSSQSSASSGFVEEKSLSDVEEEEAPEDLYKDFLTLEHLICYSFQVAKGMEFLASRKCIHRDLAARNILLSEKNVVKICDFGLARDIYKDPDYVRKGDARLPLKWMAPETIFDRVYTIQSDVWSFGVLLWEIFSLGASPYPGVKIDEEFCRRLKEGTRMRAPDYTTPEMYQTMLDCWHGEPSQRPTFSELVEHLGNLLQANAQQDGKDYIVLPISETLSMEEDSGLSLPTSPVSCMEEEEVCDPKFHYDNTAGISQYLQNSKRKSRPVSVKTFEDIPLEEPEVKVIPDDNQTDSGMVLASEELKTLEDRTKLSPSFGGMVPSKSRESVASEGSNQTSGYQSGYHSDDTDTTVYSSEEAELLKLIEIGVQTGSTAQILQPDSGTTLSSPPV
Chain of CSF1R (FMS) (P07333 20-972): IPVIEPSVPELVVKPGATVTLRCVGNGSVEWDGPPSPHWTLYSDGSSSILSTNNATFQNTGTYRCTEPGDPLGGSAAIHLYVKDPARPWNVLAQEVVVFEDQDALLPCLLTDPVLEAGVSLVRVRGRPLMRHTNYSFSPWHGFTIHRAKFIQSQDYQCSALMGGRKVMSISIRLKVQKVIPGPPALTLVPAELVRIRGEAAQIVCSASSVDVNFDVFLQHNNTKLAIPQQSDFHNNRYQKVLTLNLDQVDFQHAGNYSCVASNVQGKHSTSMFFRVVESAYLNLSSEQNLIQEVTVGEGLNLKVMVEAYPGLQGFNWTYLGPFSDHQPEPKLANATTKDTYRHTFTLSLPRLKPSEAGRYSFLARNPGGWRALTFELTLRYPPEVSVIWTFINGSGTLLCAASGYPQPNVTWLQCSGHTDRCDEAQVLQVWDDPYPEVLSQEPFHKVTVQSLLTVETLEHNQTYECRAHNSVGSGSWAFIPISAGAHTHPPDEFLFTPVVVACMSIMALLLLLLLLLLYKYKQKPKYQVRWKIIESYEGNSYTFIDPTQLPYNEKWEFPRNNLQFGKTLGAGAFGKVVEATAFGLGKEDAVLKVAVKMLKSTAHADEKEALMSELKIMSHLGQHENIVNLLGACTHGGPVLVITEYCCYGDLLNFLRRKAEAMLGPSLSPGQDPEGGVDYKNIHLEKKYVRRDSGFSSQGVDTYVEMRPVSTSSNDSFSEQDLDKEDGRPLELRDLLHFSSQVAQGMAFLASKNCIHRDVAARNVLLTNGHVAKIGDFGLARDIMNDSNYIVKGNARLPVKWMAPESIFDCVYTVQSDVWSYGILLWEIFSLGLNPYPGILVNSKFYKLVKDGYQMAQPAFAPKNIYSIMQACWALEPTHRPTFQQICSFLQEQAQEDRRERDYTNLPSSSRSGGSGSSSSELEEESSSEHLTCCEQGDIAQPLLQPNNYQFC

Turning to `CCn1ncc2c1CCC(Nc1nc3c(-c4cccnc4OC)cccn3n1)C2` (stereo not drawn) [Example 69, (1-Ethyl-4,5,6,7-tetrahydro-1H-indazol-5-yl)-[8-(2-methoxy-pyridin-3-yl)-[1,2,4]triazolo[1,5-a]pyridine-2-yl]-amine], the inhibition at 10 µM was < 40% at CSF1R (FMS) (setting [1]); 8% at CSF1R (FMS) (setting [2]); < 40% on CDK5/p35 (setting [3]); 28% on CDK5/p35 (setting [4]); < 40% on PTK2 (FAK) (setting [5]); 24% on PTK2 (FAK) (setting [6]). Further, the inhibition at 10 µM on KDR (VEGFR2) (setting [7]) is < 40%; on KDR (VEGFR2) (setting [8]) it was 8%.
As to `Cc1cc(F)ccc1-c1cccn2nc(NC3CCc4c(cnn4C)C3)nc12` (stereo not drawn) [Example 10, [8-(4-fluoro-2-methyl-phenyl)-[1,2,4]triazolo[1,5-a]pyridine-2-yl]-(1-methyl-4,5,6,7-tetrahydro-1H-indazol-5-yl)-amine], the inhibition at 10 µM is 40 to 80% on CSF1R (FMS) (setting [1]); 42% on CSF1R (FMS) (setting [2]); 40 to 80% at CDK5/p35 (setting [3]); 44% at CDK5/p35 (setting [4]); < 40% on PTK2 (FAK) (setting [5]); 13% at PTK2 (FAK) (setting [6]). For the same compound, the inhibition at 10 µM on KDR (VEGFR2) (setting [7]) was < 40%; at KDR (VEGFR2) (setting [8]), -2%.
For `CC1(C)NC(=O)c2ccc(Nc3nc4c(-c5cccc(F)c5)cccn4n3)cc21` [Cpd. 302 in WO09155551, reference compound], the inhibition at 10 µM on CSF1R (FMS) (setting [1]) was > 80%; on CSF1R (FMS) (read-out: % Inhibition mean), 95%; at CDK5/p35 (setting [3]) it was > 80%; on CDK5/p35 (read-out: % Inhibition mean), 88%; on PTK2 (FAK) (setting [5]), > 80%; on PTK2 (FAK) (read-out: % Inhibition mean) it was 86%. Further, the inhibition at 10 µM on KDR (VEGFR2) (setting [7]) is > 80%; at KDR (VEGFR2) (read-out: % Inhibition mean) it was 101%.
